Read-outs that look alike come from different tables or passages of the source.
Key:
[1] = test system: convulsions induced by AMPA; assay: Anticonvulsant action induced by AMPA; assay type: in vivo, mice of ddy strain; conditions: 25 mg/kg orally, male ddy mice; AMPA continuously injected into lateral ventricle 30 minutes or 1 hour after
Protocol: A test compound was suspended in a 0.5% methyl cellulose solution or in sesame oil and was orally administered (25 mg/kg) to male mice of ddy strain. After 30 minutes or 1 hour from the oral administration, AMPA was continuously injected ([…]/5 μl/minute/mouse) into lateral ventricle to induce the convulsions. The effect was judged by a time-extending action until the convulsion takes place by a continuous injection of AMPA.

[2] = test system: experimental autoimmune encephalomyelitis; assay: Experimental autoimmune encephalomyelitis model; assay type: in vivo; conditions: p.o. 5, 10 and 20 mg/kg, 10-16 days post immunisation, female Lewis rats, versus vehicle
Protocol: Female Lewis rats (205±10 g) obtained from Charles River, Kent UK, were housed in pairs under environmentally controlled conditions (6:00 a.m.-6:00 p.m. light/dark cycle; 22-24° C.; 45-55% humidity) and allowed free access to food and water. Experimental groups consisted of 9-12 animals. Rats were immunised in each hind foot with 20-50 μl of inoculum containing 50 μg guinea pig myelin basic protein (MBP; final concentration 2 mg/ml), emulsified in Freund's complete adjuvant (CFA; Sigma, UK) containing Mycobacterium tuberculosis H37Ra (final concentration 5.5 mg/ml; Difco Laboratories, UK). Animals were weighed and monitored daily and clinical disease scored as (O) no clinical signs; (1) flaccid tail and weight loss; (2) hind limb hypotonia with further weight loss; (3) complete hind limb paralysis; (4) paraplegia and (5) death. […] During the period of compound administration (10-16 days post immunisation; dpi) animals were scored 15 h after injection of vehicle or compound to avoid any acute effect of treatment on disease score. Compounds were dissolved/suspended in 0.5% methyl cellulose using a hand held Polytron homogeniser (PT1200; 2 min). Rats were dosed p.o. with either methyl cellulose vehicle (2.5 ml/kg) or compound at 5, 10 and 20 mg/kg. Results: the compound of the invention is improved in view of experimental autoimmune encephalomyelitis.

[3] = Table 2, suppression of AMPA-induced calcium influx into nerve cells
[4] = Table 1, primary culture of rat embryo cerebral cortex nerve cells, 2 μM AMPA, 1 μM MK-801
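Throughout, for IC50: primary rat embryonic cortical neurons grown on an astrocyte layer in 96-well plates, used after at least 8 to 10 days in culture, Fura2-AM fluorescence ratio at 340/380 nm excitation.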

Protocol for AMPA receptor: Cerebral cortex was cut out from the brain of rat of gestational 18 days and treated with trypsin and DNase to disperse the cells. The cells were flown by MEM containing 10% of serum, sown in a culture bottle and astrocytes were proliferated. The astrocytes were re-dispersed by trypsin and sown in a 96-well plate. After incubation for one week, it was confirmed that the astrocytes covered all over the bottom and then the nerve cells of cerebral cortex which was dispersed by the above method were sown thereupon. After incubation for 24 hours, the medium was changed, the incubation was carried out for one week and, after that, the medium was changed to that containing 1 μM of MK-801. Nerve cells which were incubated for not shorter than 8 to 10 days were used.
Calcium influx into the cells was measured using Fura2-AM which was a calcium-sensitive fluorescent dye. It was treated in a medium containing Fura2-AM for 1 hour, incorporated into the cells, exchanged to a Tyrode solution containing 1 μM MK-801 and stimulation was carried out using 2 μM AMPA. Change in the amount of calcium flown into the cells were measured as the change in the fluorescent intensity at the exciting wave length of 340/380 nm.

Row | SMILES | anticonvulsant action (time-extending action until the convulsion takes place) [1] | IC50 (AMPA receptor; [3]) [nM] | IC50 (AMPA receptor; [4]) [nM] | further results
1 | N#Cc1sccc1-c1cc(-c2ccccn2)cn(-c2cccnc2)c1=O [Example 137, 3-(2-Cyanothiophen-3-yl)-5-(2-pyridyl)-1-(3-pyridyl)-1,2-dihydropyridin-2-one] | significant anticonvulsant action | 50 | – | –
2 | O=c1c(-c2ccccc2Cl)cc(-c2ccccn2)cn1-c1ccccc1 [Example 57, 3-(2-Chlorophenyl)-5-(2-pyridyl)-1-phenyl-1,2-dihydropyridin-2-one] | significant anticonvulsant action | – | 200 | –
3 | N#Cc1ccccc1-c1cc(-c2ccccc2)cn(-c2cccnc2)c1=O [Example 47, 3-(2-Cyanophenyl)-5-phenyl-1-(3-pyridyl)-1,2-dihydropyridin-2-one] | significant anticonvulsant action | – | 600 | –
4 | N#Cc1ccccc1-c1cc(-c2cccc(N)n2)cn(-c2ccccc2)c1=O [Example 298, 5-(2-Aminopyridin-6-yl)-3-(2-cyanophenyl)-1-phenyl-1,2-dihydropyridin-2-one] | significant anticonvulsant action | 300 | – | –
5 | O=c1c(-c2ccccc2[N+](=O)[O-])cc(-c2ccccn2)cn1-c1ccccc1 [Example 270, 3-(2-Nitrophenyl)-1-phenyl-5-(2-pyridyl)-1,2-dihydropyridin-2-one] | significant anticonvulsant action | 140 | – | –
6 | N#Cc1ccccc1-c1cc(-c2ncccn2)cn(-c2cccnc2)c1=O [Example 261, 3-(2-Cyanophenyl)-1-(3-pyridyl)-5-(2-pyrimidinyl)-1,2-dihydropyridin-2-one] | significant anticonvulsant action | 80 | – | effect on experimental autoimmune encephalomyelitis (clinical disease score) [2]: superior effect to the vehicle-administered group
7 | N#Cc1ccccc1-c1cc(-c2ccccn2)cn(-c2cccnc2)c1=O [Example 32, 3-(2-Cyanophenyl)-5-(2-pyridyl)-1-(3-pyridyl)-1,2-dihydropyridin-2-one] | significant anticonvulsant action | – | 100 | effect on experimental autoimmune encephalomyelitis (clinical disease score) [2]: superior effect to the vehicle-administered group
8 | N#Cc1ccccc1-c1cc(-c2ccccn2)cn(-c2ccccc2)c1=O [Example 7, 3-(2-Cyanophenyl)-5-(2-pyridyl)-1-phenyl-1,2-dihydropyridin-2-one] | significant anticonvulsant action | – | 100 | effect on experimental autoimmune encephalomyelitis (clinical disease score) [2]: superior effect to the vehicle-administered group
9 | N#Cc1ncccc1-c1cc(-c2ccccn2)cn(-c2ccccc2)c1=O [Example 16, 3-(2-Cyano-3-pyridyl)-5-(2-pyridyl)-1-phenyl-1,2-dihydropyridin-2-one] | significant anticonvulsant action | – | 100 | –
10 | CN(C)c1cccc(-n2cc(-c3ccccn3)cc(-c3ccccc3C#N)c2=O)c1 [Example 12, 3-(2-Cyanophenyl)-5-(2-pyridyl)-1-(3-dimethylaminophenyl)-1,2-dihydropyridin-2-one] | significant anticonvulsant action | – | 100 | –
11 | N#Cc1ccccc1-c1cc(-c2ncccn2)cn(-c2ccccc2)c1=O [Example 164, 3-(2-Cyanophenyl)-1-phenyl-5-(2-pyrimidinyl)-1,2-dihydropyridin-2-one] | significant anticonvulsant action | 80 | – | effect on experimental autoimmune encephalomyelitis (clinical disease score) [2]: superior effect to the vehicle-administered group
12 | O=c1c(-c2ccccc2)cc(-c2ccccn2)cn1-c1ccccc1 [Example 61, 3-Phenyl-5-(2-pyridyl)-1-phenyl-1,2-dihydropyridin-2-one] | significant anticonvulsant action | – | 200 | –
13 | N#Cc1cccc(-c2cc(-c3ccccn3)cn(-c3ccccc3)c2=O)n1 [Example 78, 3-(6-Cyano-2-pyridyl)-5-(2-pyridyl)-1-phenyl-1,2-dihydropyridin-2-one] | significant anticonvulsant action | – | 1400 | –
14 | N#Cc1ccccc1-c1cc(-c2cnccn2)cn(-c2ccccc2)c1=O [Example 199, 3-(2-Cyanophenyl)-1-phenyl-5-(2-pyrazyl)-1,2-dihydropyridin-2-one] | significant anticonvulsant action | 700 | – | –
15 | N#Cc1ncccc1-c1cc(-c2ncccn2)cn(-c2ccccc2)c1=O [Example 264, 3-(2-Cyanopyridin-3-yl)-1-phenyl-5-(2-pyrimidinyl)-1,2-dihydropyridin-2-one] | significant anticonvulsant action | 50 | – | effect on experimental autoimmune encephalomyelitis (clinical disease score) [2]: superior effect to the vehicle-administered group
16 | O=c1c(-c2cccnc2Cl)cc(-c2ccccn2)cn1-c1ccccc1 [Example 4, 3-(2-Chloro-3-pyridyl)-5-(2-pyridyl)-1-phenyl-1,2-dihydropyridin-2-one] | significant anticonvulsant action | – | 100 | –
17 | O=c1c(-c2cccnc2F)cc(-c2ccccn2)cn1-c1ccccc1 [Example 76, 3-(2-Fluoro-3-pyridyl)-5-(2-pyridyl)-1-phenyl-1,2-dihydropyridin-2-one] | significant anticonvulsant action | – | 100 | effect on experimental autoimmune encephalomyelitis (clinical disease score) [2]: superior effect to the vehicle-administered group
18 | N#Cc1ccccc1-c1cc(-c2ccccc2)cn(-c2ccccc2)c1=O [Example 41, 3-(2-Cyanophenyl)-1,5-diphenyl-1,2-dihydropyridin-2-one] | significant anticonvulsant action | – | 80 | –
19 | N#Cc1ccccc1-c1cc(-c2ccccn2)cn(-c2cccc(N)c2)c1=O [Example 9, 3-(2-Cyanophenyl)-5-(2-pyridyl)-1-(3-aminophenyl)-1,2-dihydropyridin-2-one] | significant anticonvulsant action | – | 30 | –
20 | COc1ccccc1-n1cc(-c2ccccn2)cc(-c2ccccc2C#N)c1=O [Example 126, 3-(2-Cyanophenyl)-5-(2-pyridyl)-1-(2-methoxyphenyl)-1,2-dihydropyridin-2-one] | significant anticonvulsant action | – | 300 | –
21 | N#Cc1ccccc1-c1cc(-c2ccccn2)cn(-c2ccc(F)cc2)c1=O [Example 91, 3-(2-Cyanophenyl)-5-(2-pyridyl)-1-(4-fluorophenyl)-1,2-dihydropyridin-2-one] | significant anticonvulsant action | – | 50 | –
22 | O=c1c(-c2ccccc2Cl)cc(-c2ccccn2)cn1-c1cccnc1 [Example 128, 3-(2-Chlorophenyl)-5-(2-pyridyl)-1-(3-pyridyl)-1,2-dihydropyridin-2-one] | significant anticonvulsant action | – | 70 | –
23 | CN(C)c1ccc(-c2cc(-c3ccccn3)cn(-c3ccccc3)c2=O)cc1 [Example 234, 3-(4-Dimethylaminophenyl)-1-phenyl-5-(2-pyridyl)-1,2-dihydropyridin-2-one] | – | 900 | – | –
24 | N#Cc1ccccc1-c1cc(-c2ccccn2)cn(-c2ccc3ccccc3c2)c1=O [Example 290, 3-(2-Cyanophenyl)-5-(2-pyridyl)-1-(2-naphthyl)-1,2-dihydropyridin-2-one] | – | 200 | – | –
25 | O=c1c(C23CC4CC(CC(C4)C2)C3)cc(-c2ccccn2)cn1-c1ccccc1 [Example 178, 3-(1-Adamantyl)-5-(2-pyridyl)-1-phenyl-1,2-dihydropyridin-2-one] | – | 2000 | – | –
26 | N#Cc1ccccc1-c1cc(-c2ccccn2)cn(-c2ccccc2CO)c1=O [Example 149, 3-(2-Cyanophenyl)-5-(2-pyridyl)-1-(2-hydroxymethylphenyl)-1,2-dihydropyridin-2-one] | – | 100 | – | –
27 | N#Cc1ccccc1-c1cc(-c2cccc(N3CCOCC3)n2)cn(-c2ccccc2)c1=O [Example 302, 3-(2-Cyanophenyl)-5-(2-morpholinopyridin-6-yl)-1-phenyl-1,2-dihydropyridin-2-one] | – | – | – | IC50 (AMPA receptor; Table 3, primary culture of rat embryo cerebral cortex nerve cells, 2 μM AMPA, 1 μM MK-801): 300 nM
28 | CC1=NN=C(c2ccc(N)cc2)c2cc3c(cc2C1)OCO3 [GYKI 52466, reference compound] | – | – | – | IC50 (AMPA receptor; control compound, same test, 2 μM AMPA): 9020 nM

— US6949571B2, “1,2-dihydropyridine compounds, process for preparation of the same and use thereof” (Eisai Co., Ltd., priority 2000, dated 2005)
